The source of these data is patent publication EP0942911B1, “BENZOPYRANOPYRROLE AND BENZOPYRANOPYRIDINE ALPHA-1 ADRENERGIC COMPOUNDS” (Abbott Laboratories, priority 1996, dated 1998).

For one test, the target named is T1, α-1A adrenoreceptor (Rattus norvegicus, UniProt P43140).
T1 sequence (P43140 1-466): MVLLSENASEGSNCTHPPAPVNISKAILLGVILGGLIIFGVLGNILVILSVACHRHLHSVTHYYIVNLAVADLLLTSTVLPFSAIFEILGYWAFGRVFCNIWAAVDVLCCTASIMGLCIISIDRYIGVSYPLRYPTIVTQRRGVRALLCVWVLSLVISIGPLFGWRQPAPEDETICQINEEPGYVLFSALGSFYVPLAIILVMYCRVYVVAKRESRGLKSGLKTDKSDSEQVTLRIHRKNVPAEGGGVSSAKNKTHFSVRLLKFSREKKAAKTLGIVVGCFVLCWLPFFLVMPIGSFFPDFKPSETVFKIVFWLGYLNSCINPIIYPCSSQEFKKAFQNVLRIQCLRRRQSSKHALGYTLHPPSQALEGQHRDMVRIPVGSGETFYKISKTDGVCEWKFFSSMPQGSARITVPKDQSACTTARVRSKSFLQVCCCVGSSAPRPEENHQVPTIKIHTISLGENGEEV
The test can be described thus: cell-based. The following applies: phenylephrine-induced contraction; Schild plot; read-out: In Vitro Characterization (pA2) Rat Vas (converted). Put shortly: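 Phenylephrine dose-response curves for contraction were repeated against increasing test-agent concentrations. pA2 was derived by Schild plot [[…] vs log molarity of test agent].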

Another test addresses T2, α-1d adrenoreceptor (Rattus norvegicus, UniProt P23944).
T2 sequence (P23944 1-561): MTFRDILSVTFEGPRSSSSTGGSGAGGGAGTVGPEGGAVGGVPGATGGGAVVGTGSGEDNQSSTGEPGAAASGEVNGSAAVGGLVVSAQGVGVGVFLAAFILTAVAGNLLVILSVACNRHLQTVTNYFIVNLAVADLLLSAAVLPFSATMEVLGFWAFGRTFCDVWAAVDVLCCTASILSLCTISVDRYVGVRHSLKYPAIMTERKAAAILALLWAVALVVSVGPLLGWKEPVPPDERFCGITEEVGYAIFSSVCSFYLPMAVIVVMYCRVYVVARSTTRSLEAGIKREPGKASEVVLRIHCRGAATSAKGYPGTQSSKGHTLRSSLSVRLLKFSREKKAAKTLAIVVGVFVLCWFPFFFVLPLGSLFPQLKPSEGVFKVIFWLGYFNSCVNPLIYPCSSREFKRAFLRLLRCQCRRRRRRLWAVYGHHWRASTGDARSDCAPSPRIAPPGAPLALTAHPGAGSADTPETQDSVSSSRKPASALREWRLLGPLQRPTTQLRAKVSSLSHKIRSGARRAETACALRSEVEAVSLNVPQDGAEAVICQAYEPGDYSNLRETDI
In words: biochemical. It counts as binding. Conditions: [3H]-prazosin radioligand; cloned receptor in LTK cell membranes; read-out: Radioligand Binding (Ki, nM) 1d (Rat). Put shortly: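 Membranes were prepared from high-density single-cell clones of transfected LTK cells, plus rat submaxillary gland for the α-1A site. Binding was measured by radioligand displacement with scintillation counting.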

Structures are written as SMILES. Counter-ions that a name gives are not always drawn.

Usually Ki stands for a measure of affinity in units of concentration, obtained from inhibition or displacement. For `COc1cccc2c1[C@@H]1CN(CCCCn3c(=O)[nH]c4c(sc5nc(-c6ccccc6)cnc54)c3=O)C[C@@H]1CO2` [Example 40, 3-[4-((3aR,9bR)-cis-9-Methoxy-1,2,3,3a,4,9b-hexahydro-[1]-benzopyrano[3,4-c]pyrrol-2-yl)butyl]-7-phenyl-pyrazino[2',3':4,5]thieno[3,2-d]pyrimidine-2,4(1H,3H)-dione hydrochloride], the Kb on α-1A adrenoreceptor was 3020 pM. Also, on α-1d adrenoreceptor, the Ki amounted to 7.12 nM.
With `COc1cccc2c1[C@@H]1CN(CCCCn3c(=O)[nH]c4c(sc5ccncc54)c3=O)C[C@H]1CO2` [Example 41, 3-[4-((3aS,9bR)-trans-9-Methoxy-1,2,3,3a,4,9b-hexahydro-[1]-benzopyrano[3,4-c]pyrrol-2-yl)butyl]-pyrido[3',4':4,5]thieno[3,2-d]pyrimidine-2,4(1H,3H)-dione dihydrochloride], the Kb at α-1A adrenoreceptor is 355 pM. The inhibition constant Ki on α-1d adrenoreceptor was determined as 0.041 nM.
On to `COc1cccc2c1[C@@H]1CN(CCCCn3c(=O)[nH]c4c(sc5cnccc54)c3=O)C[C@H]1CO2` [Example 42, 3-[4-((3aS,9bR)-trans-9-Methoxy-1,2,3,3a,4,9b-hexahydro-[1]-benzopyrano[3,4-c]pyrrol-2-yl)butyl]-pyrido[4',3':4,5]thieno[3,2-d]pyrimidine-2,4(1H,3H)-dione dihydrochloride], for which, at α-1A adrenoreceptor, the Kb was 257 pM. Also, the Ki at α-1d adrenoreceptor amounted to 0.066 nM.
In the same order, the values of `COc1cccc2c1[C@@H]1CN(CCCCn3c(=O)[nH]c4c(sc5ncccc54)c3=O)C[C@H]1CO2` [Example 44, 3-[4-((3aS,9bR)-trans-9-Methoxy-1,2,3,3a,4,9b-hexahydro-[1]-benzopyrano[3,4-c]pyrrol-2-yl)butyl]-pyrido[3',2':4,5]thieno[3,2-d]pyrimidine-2,4(1H,3H)-dione hydrochloride] are 110 pM and 0.081 nM.
Regarding `COc1cccc2c1[C@@H]1CN(CCCCn3c(=O)[nH]c4c(sc5nc(C)ccc54)c3=O)C[C@H]1CO2` [Example 45, 3-[4-((3aS,9bR)-trans-9-Methoxy-1,2,3,3a,4,9b-hexahydro-[1]-benzopyrano[3,4-c]pyrrol-2-yl)butyl]-7-methyl-pyrido[3',2':4,5]thieno[3,2-d]pyrimidine-2,4(1H,3H)-dione hydrochloride], the Kb at α-1A adrenoreceptor was 257 pM. Also, the Ki at α-1d adrenoreceptor was 0.104 nM.
In the same order, the values of `COc1ccc2c(n1)sc1c(=O)n(CCCCN3C[C@H]4COc5cccc(OC)c5[C@@H]4C3)c(=O)[nH]c12` [Example 46, 3-[4-((3aS,9bR)-trans-9-Methoxy-1,2,3,3a,4,9b-hexahydro-[1]-benzopyrano[3,4-c]pyrrol-2-yl)butyl]-7-methoxy-pyrido[3',2':4,5]thieno[3,2-d]pyrimidine-2,4(1H,3H)-dione hydrochloride] are 162 pM and 0.114 nM.
Take `COc1cccc2c1[C@@H]1CN(CCCCn3c(=O)[nH]c4c(sc5nc(Cl)ccc54)c3=O)C[C@H]1CO2` [Example 47, 3-[4-((3aS,9bR)-trans-9-Methoxy-1,2,3,3a,4,9b-hexahydro-[1]-benzopyrano[3,4-c]pyrrol-2-yl)butyl]-7-chloro-pyrido[3',2':4,5]thieno[3,2-d]pyrimidine-2,4(1H,3H)-dione hydrochloride]: the Kb at α-1A adrenoreceptor is 1120 pM. Besides, the inhibition constant Ki on α-1d adrenoreceptor turned out to be 0.189 nM.
In the same order, the values of `COc1cccc2c1[C@@H]1CN(CCCCn3c(=O)[nH]c4c(sc5ncc(-c6ccccc6)nc54)c3=O)C[C@H]1CO2` [Example 50, 3-[4-((3aS,9bR)-trans-9-Methoxy-1,2,3,3a,4,9b-hexahydro-[1]-benzopyrano[3,4-c]pyrrol-2-yl)butyl]-8-phenyl-pyrazino[2',3':4,5]thieno[3,2-d]pyrimidine-2,4(1H,3H)-dione hydrochloride] are 44.7 pM and 0.391 nM.
In the same order, the values of `COc1cccc2c1[C@@H]1CN(CCCCn3c(=O)[nH]c4c(sc5ccc(OC(C)C)nc54)c3=O)C[C@H]1CO2` [Example 51, 3-[4-((3aS,9bR)-trans-9-Methoxy-1,2,3,3a,4,9b-hexahydro-[1]-benzopyrano[3,4-c]pyrrol-2-yl)butyl]-8-isopropoxy-pyrido[2',3':4,5]thieno[3,2-d]pyrimidine-2,4(1H,3H)-dione hydrochloride] are 631 pM and 0.371 nM.
In the same order, the values of `COc1cccc2c1[C@@H]1CN(CCCCn3c(=O)[nH]c4c(sc5c(Cl)nccc54)c3=O)C[C@@H]1CO2` [Example 53, 3-[4-((3aR,9bR)-cis-9-Methoxy-1,2,3,3a,4,9b-hexahydro-[1]-benzopyrano[3,4-c]pyrrol-2-yl)butyl]-6-chloro-pyrido[4',3':4,5]thieno[3,2-d]pyrimidine-2,4(1H,3H)-dione] are 490 pM and 0.664 nM.
With `COc1cccc2c1[C@@H]1CCN(CCCCn3c(=O)[nH]c4c(sc5ncc(Cl)nc54)c3=O)C[C@H]1CO2` [Example 97, 3-[4-((4aS,10bR)-trans-10-Methoxy-1,3,4,4a,5,10b-hexahydro-2H-[1]-benzopyrano[3,4-c]pyrido-3-yl)butyl]-8-chloro-pyrazino[2',3':4,5]thieno[3,2-d]pyrimidine-2,4(1H,3H)-dione dihydrochloride], the Kb on α-1A adrenoreceptor was 1550 pM. Also, at α-1d adrenoreceptor, the inhibitory constant (Ki) was found to be 0.247 nM.
